Active and inactive are the calls of the source.
Tests used:
[1] = target: ADP-ribosylation factor GTPase-activating protein 1 (Rattus norvegicus, UniProt Q62848); test: Fluorescence polarization-based biochemical high throughput dose response screening assay to identify inhibitors of ADP-ribosylation factor GTPase activating protein 1 (ARFGAP1).; type: functional
[2] = target: Arf-GAP with SH3 domain, ANK repeat and PH domain-containing protein 1 (Homo sapiens, UniProt Q9ULH1); type: functional;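 further: biochemical fluorescence polarization dose–response screen measuring inhibition of ASAP1; ASAP1 GAP domain stimulating GTP hydrolysis by truncated human ARF1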
Chain of Arf-GAP with SH3 domain, ANK repeat and PH domain-containing protein 1 (Q9ULH1 whole entry, the tested form may be a part): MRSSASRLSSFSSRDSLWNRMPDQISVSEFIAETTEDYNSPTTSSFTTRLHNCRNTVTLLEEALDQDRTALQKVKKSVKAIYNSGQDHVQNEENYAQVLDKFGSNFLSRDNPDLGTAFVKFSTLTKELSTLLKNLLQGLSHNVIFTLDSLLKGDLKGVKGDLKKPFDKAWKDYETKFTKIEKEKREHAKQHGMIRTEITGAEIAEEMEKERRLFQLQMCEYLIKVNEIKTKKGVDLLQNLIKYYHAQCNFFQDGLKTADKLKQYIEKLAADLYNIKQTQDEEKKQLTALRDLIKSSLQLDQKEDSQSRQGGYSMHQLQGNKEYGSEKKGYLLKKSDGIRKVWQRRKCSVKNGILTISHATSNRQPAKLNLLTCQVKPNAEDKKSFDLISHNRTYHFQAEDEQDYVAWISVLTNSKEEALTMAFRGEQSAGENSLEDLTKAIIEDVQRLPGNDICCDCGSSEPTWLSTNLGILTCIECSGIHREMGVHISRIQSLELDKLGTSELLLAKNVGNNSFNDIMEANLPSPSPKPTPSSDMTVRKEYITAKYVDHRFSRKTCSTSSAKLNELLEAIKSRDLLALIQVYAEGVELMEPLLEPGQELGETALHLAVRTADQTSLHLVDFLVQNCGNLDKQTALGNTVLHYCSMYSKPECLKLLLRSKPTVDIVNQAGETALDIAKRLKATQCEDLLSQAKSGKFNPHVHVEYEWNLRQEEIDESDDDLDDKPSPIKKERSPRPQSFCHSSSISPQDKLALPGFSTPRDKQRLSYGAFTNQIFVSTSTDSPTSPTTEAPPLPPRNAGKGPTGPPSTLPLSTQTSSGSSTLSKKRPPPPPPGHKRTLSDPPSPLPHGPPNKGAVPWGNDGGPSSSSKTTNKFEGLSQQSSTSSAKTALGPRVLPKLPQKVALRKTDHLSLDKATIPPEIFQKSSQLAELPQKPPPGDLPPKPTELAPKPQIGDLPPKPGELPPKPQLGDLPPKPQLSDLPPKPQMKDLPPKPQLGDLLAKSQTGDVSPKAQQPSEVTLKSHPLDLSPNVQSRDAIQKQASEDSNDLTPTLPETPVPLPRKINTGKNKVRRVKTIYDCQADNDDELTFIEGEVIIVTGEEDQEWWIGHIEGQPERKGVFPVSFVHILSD

[3] = target: T1, Replicative DNA helicase DnaB (Mycobacterium tuberculosis, UniProt P9WMR3); test: DnaB intein splicing inhibitors, dose response, biochemical, cell-free fluorescence (AID 449749); type: functional
T1 sequence (P9WMR3 whole entry): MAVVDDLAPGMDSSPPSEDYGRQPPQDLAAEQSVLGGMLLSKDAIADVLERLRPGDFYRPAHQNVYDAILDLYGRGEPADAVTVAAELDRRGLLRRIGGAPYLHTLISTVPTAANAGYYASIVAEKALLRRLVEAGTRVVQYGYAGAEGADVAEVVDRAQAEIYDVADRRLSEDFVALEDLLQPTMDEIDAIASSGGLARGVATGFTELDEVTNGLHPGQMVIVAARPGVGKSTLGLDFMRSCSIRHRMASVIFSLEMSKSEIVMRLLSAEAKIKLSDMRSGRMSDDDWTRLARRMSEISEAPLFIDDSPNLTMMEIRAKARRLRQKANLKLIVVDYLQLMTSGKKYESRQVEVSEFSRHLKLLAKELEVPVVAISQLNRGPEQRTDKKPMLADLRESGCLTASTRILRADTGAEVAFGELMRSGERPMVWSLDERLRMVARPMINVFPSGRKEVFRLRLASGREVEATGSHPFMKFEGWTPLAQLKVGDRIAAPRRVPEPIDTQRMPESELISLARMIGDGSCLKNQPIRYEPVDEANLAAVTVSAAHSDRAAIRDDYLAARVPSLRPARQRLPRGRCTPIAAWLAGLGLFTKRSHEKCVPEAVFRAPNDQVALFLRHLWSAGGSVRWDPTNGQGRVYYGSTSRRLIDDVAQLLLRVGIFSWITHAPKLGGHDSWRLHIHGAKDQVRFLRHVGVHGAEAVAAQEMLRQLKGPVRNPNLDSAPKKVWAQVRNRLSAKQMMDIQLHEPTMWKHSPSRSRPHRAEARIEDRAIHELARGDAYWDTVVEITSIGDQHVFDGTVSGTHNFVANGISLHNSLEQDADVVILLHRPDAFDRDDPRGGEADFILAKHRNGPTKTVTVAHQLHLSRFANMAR

Protein RecA = target: T2, Protein RecA (Mycobacterium tuberculosis, UniProt P9WHJ3); test: Fluorescence Cell-Free Homogeneous Dose Retest to Identify Inhibitors of RecA-Intein Splicing Activity. [Related pubchem assays (depositor defined):AID2097, AID2223, AID489010, AID492950]; type: functional
T2 sequence (P9WHJ3 whole entry): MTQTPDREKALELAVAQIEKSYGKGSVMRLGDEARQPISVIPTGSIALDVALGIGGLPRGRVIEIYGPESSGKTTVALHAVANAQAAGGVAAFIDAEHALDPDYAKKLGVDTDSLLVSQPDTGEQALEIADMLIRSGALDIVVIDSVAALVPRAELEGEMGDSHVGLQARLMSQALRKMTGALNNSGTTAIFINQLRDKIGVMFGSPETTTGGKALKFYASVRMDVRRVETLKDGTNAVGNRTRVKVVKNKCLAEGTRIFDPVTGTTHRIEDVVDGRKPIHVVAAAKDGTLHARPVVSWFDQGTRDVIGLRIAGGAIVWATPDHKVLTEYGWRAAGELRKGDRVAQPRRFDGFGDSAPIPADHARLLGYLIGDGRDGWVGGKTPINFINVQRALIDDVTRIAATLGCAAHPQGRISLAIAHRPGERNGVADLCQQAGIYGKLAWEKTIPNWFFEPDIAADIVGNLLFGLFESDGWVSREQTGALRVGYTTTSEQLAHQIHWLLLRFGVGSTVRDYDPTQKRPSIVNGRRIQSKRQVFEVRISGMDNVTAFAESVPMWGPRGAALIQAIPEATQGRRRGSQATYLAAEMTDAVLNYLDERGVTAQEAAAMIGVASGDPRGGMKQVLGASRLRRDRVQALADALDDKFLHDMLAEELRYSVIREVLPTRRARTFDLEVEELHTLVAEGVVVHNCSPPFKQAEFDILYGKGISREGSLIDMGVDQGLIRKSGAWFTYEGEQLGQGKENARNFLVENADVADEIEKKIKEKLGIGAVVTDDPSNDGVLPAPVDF

Melanocortin receptor 4 = Melanocortin receptor 4 (Homo sapiens, UniProt P32245); test: inhibitors of MC4R cAMP signaling – cell-based, TR-FRET, biased antagonists, dose response (AID 602298); type: functional;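 further: antagonist potency against agonist-stimulated cAMP production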
Chain of Melanocortin receptor 4 (P32245 whole entry): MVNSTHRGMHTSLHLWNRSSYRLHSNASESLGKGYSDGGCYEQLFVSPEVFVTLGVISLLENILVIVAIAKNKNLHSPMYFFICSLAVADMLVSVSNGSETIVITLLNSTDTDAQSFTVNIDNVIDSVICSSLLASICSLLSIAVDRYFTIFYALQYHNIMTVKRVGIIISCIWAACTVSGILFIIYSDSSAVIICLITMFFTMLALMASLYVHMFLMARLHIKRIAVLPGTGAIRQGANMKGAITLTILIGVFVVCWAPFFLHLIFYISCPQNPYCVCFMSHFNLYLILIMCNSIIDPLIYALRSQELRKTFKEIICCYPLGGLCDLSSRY

[4] = reduction of Shn3 3'UTR-driven luciferase in osteoblasts – cell-based, Clone20 osteoblasts, firefly luciferase, cherry-picked, dose response (AID 624132); type: functional;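 further: firefly luciferase luminescence from reporter carrying the Shn3 3'UTR in osteoblasts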
[5] = loss of viability in HepG2 cells – cell-based, CellTiter-Glo, cherry-picked, cytotoxicity control for Shn3 inhibitor project, dose response (AID 624134); type: functional
[6] = non-specific 3'UTR reporter inhibition in Clone20-Shn3RL – cell-based, Renilla luciferase, cherry-picked, counter-screen for Shn3 inhibitor project, dose response (AID 624133); type: functional
[7] = cAMP pathway inhibition in counterscreen cell line – TR-FRET cAMP detection, counter-screen for MC4R biased antagonist project, dose response (AID 602305); type: functional, cell-based;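 further: U2OS cells stimulated with forskolin near its EC80 as the cAMP inducer; potency is for inhibition of forskolin-stimulated cAMP signaling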
[8] = Fluorescence-based cell-based high throughput dose response assay for inhibitors of the interaction of nucleotide-binding oligomerization domain containing 2 (NOD2) and the receptor-interacting serine-threonine kinase 2 (RIPK2).; type: functional; settings: Homo sapiens
Beta Lactamase = Beta Lactamase (Pseudomonas aeruginosa, UniProt Q932Y6); test: BLA reporter interference, concentration series – BLA reporter cells, FRET fluorescence, artefact control for NOD2-RIPK2 interaction inhibitor project, dose response (AID 651552); type: functional, cell-based
Chain of Beta Lactamase (Q932Y6 whole entry): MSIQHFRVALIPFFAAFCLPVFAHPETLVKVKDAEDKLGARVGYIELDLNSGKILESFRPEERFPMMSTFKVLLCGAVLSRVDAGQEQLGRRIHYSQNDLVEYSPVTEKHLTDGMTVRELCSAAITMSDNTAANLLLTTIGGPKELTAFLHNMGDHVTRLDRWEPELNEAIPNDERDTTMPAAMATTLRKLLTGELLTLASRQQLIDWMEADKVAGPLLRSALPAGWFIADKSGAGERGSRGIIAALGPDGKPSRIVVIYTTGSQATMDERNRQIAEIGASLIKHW

Chain of ADP-ribosylation factor GTPase-activating protein 1 (Q62848 whole entry, the tested form may be a part): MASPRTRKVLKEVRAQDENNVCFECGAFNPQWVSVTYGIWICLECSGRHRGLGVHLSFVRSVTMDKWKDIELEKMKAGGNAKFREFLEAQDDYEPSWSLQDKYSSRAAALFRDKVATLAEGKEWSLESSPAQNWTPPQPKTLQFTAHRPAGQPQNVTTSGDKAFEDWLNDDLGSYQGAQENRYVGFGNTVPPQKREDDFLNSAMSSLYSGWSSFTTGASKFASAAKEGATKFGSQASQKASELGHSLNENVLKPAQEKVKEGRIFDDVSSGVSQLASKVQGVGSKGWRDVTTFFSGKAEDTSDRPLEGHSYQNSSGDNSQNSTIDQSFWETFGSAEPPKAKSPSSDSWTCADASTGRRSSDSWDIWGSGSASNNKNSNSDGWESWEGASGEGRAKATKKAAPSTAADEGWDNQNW

Structure (SMILES)	IC50 [1]	IC50 [2]	AC50 [3]	EC50 (Protein RecA)	IC50 (Melanocortin receptor 4)	AC50 [4]	AC50 [5]	AC50 [6]	IC50 [7]	IC50 [8]	IC50 (Beta Lactamase)
COc1ccc([N+](=O)[O-])cc1NC(=O)c1ccc(Br)s1	35.6 µM (inactive)	20.8 µM (inactive)									
Cc1cccc(CS(=O)(=O)c2ncc(Cl)c(C(=O)NCc3ccc4c(c3)OCO4)n2)c1			3.39 µM (active)	3.52 µM (active)	> 64.6 µM (inactive)	0.938 µM (active)	41.3 µM (active)	11.3 µM (active)	> 64.6 µM (inactive)	3.95 µM (active)	21.1 µM (inactive)

From ChEMBL document CHEMBL1201862, “PubChem BioAssay data set” (2004)
